Target: T1, chimeric human RORγ-Gal4 receptor (Homo sapiens, UniProt P51449)
T1 sequence (P51449 269-508 limits assumed): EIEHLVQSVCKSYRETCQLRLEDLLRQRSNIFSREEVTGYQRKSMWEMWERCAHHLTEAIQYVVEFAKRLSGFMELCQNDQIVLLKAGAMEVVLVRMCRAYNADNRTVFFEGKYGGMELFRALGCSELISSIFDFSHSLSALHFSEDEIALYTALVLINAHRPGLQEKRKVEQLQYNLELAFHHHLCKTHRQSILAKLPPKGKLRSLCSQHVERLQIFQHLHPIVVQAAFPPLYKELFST
Test: transient transactivation assay (RORγ-Gal4 luciferase reporter)
Type: cell-based
Conditions: Cos-7 cells transfected with RORγ-Gal4 and 5Gal4 pGL3 TK Luc reporter; overnight incubation; T0901317 at 10^-5 M as reference; read-out: IC50

| Compound | IC50 [nM] |
| --- | --- |
| Cc1cn(Cc2c(Cl)ccc(C(=O)N3CCC(C(=O)O)CC3)c2Cl)c2c(C)cc(C(F)(F)F)cc12 [DH, 1-(2,4-dichloro-3-((3,7-dimethyl-5-(trifluoromethyl)-1H-indol-1-yl)methyl)benzoyl)piperidine-4-carboxylic acid] | < 100 |
| Cn1c(Cc2c(Cl)ccc(C(=O)N3CCOCC3)c2Cl)nc2c(C(F)(F)F)cc(Br)cc21 [CE, (3-((6-bromo-1-methyl-4-(trifluoromethyl)-1H-benzo[d]imidazol-2-yl)methyl)-2,4-dichlorophenyl)(morpholino)methanone] | 100 to 500 |
| Cc1cc(C(F)(F)F)cc2c1cc(Cc1c(Cl)ccc(C(=O)N[C@H]3CC[C@@H](C(=O)O)CC3)c1Cl)n2C [Example B-25] | < 100 |
| CC(C)c1ccc2c(ccn2Cc2c(Cl)ccc(C(=O)N3CCC(CC(=O)O)CC3)c2Cl)c1 [EI-1] | < 100 |
| Cc1cc(C(F)(F)F)cc2c1cc(Cc1c(Cl)ccc(C(=O)N3CC4(CC(CC(=O)O)C4)C3)c1Cl)n2C [Example B-17] | < 100 |
| Cc1cc(C(F)(F)F)cn2c(C)c(Cc3c(Cl)ccc(C(=O)N4CCN(C5COC5)CC4)c3Cl)nc12 [CT-9] | 100 to 500 |
| Cn1c(Cc2c(Cl)ccc(C(=O)N3CCC(C(=O)O)CC3)c2Cl)cc2ccc(C(F)(F)F)cc21 [M, 1-(2,4-dichloro-3-((1-methyl-6-(trifluoromethyl)-1H-indol-2-yl)methyl)benzoyl)piperidine-4-carboxylic acid] | 100 to 500 |
| Cc1cc(C)c2nc(Cc3c(Cl)ccc(C(=O)N4CCOCC4)c3Cl)n(C)c2c1 [Example BO, (2,4-dichloro-3-((1,4,6-trimethyl-1H-benzo[d]imidazol-2-yl)methyl)phenyl)(morpholino)methanone] | 500 to 1000 |
| Cc1cc(C(F)(F)F)cc2c1cc(Cc1c(Cl)ccc(C(=O)N3CC(CC(=O)O)C3)c1Cl)n2C [Example B-9] | < 100 |
| Cc1cc(N2CCOCC2)cc2c1cc(Cc1c(Cl)ccc(C(=O)N3CCOCC3)c1Cl)n2C [Example AY, (2,4-dichloro-3-((1,4-dimethyl-6-morpholino-1H-indol-2-yl)methyl)phenyl)(morpholino)methanone] | < 100 |
| Cc1cc(C(F)(F)F)cn2c(C)c(Cc3c(Cl)ccc(C(=O)N4CCC(CCO)CC4)c3Cl)nc12 [CT-2] | 100 to 500 |
| Cc1cc(C(F)(F)F)cc2c1nc(Cc1c(Cl)ccc(CN3CCOCC3)c1Cl)n2C [BW-10] | 100 to 500 |
| COC1CCN(Cc2ccc(Cl)c(Cc3nc4c(C)cc(C(F)(F)F)cc4n3C)c2Cl)CC1 [BW-2] | 100 to 500 |
| Cc1cc(C(F)(F)F)cc2c1nc(Cc1c(Cl)ccc(C(=O)N3CCC(C(C)O)CC3)c1Cl)n2C (stereo not drawn) [BJ-12] | < 100 |
| Cc1cc(C#N)cc2c1cc(Cc1c(Cl)ccc(O[C@H]3C[C@@H](C(=O)O)C3)c1Cl)n2C [Example AH1, cis-3-(2,4-dichloro-3-((6-cyano-1,4-dimethyl-1H-indol-2-yl)methyl)phenoxy)cyclobutanecarboxylic acid] | 500 to 1000 |
| Cc1cc(C(F)(F)F)cc2c1cc(Cc1c(Cl)ccc(C(=O)N3CCC(C)(C(=O)O)CC3)c1Cl)n2C [Example B-13] | 100 to 500 |
| Cc1cn(Cc2c(Cl)cnc(C(=O)N3CCC(CC(=O)O)CC3)c2Cl)c2c(C)cc(C(F)(F)F)cc12 [Example FR, 2-(1-(3,5-dichloro-4-((3,7-dimethyl-5-(trifluoromethyl)-1H-indol-1-yl)methyl)picolinoyl)piperidin-4-yl)acetic acid] | < 100 |
| Cn1c(Cc2c(Cl)ncc(C(=O)N3CCC(CC(=O)O)CC3)c2Cl)cc2c(F)cc(C3CC3)cc21 [Example GN, 2-[1-[4,6-dichloro-5-[(6-cyclopropyl-4-fluoro-1-methyl-1H-indol-2-yl)methyl]pyridine-3-carbonyl]-4-piperidyl]acetic acid] | < 100 |
| Cc1cc(C#N)cc2c1cc(Cc1c(Cl)ccc(C(=O)N3CCC4(CC3)COC4)c1Cl)n2C [AA-25] | 100 to 500 |
| Cn1c(Cc2c(Cl)ccc(C(=O)N3CCOCC3)c2Cl)cc2cccnc21 [CK, (2,4-dichloro-3-((1-methyl-1H-pyrrolo[2,3-b]pyridin-2-yl)methyl)phenyl)(morpholino)methanone] | 1000 to 10000 |
| Cc1cn(Cc2c(Cl)ccc(C(=O)N3CCC(C(=O)O)CC3)c2Cl)c2c(C)cc(OC(F)(F)F)cc12 [EG-1] | < 100 |
| Cn1c(Cc2c(Cl)ccc(C(=O)N3CCC(CO)CC3)c2Cl)cc2ccc(C(F)(F)F)cc21 [Example L-2] | 100 to 500 |
| COCCC1CCN(C(=O)c2ccc(Cl)c(Cc3nc4c(C)cc(C(F)(F)F)cn4c3C)c2Cl)CC1 [CT-7] | < 100 |

| Compound | IC50 [nM] |
| --- | --- |
| Cc1cc(C#N)cc2c1cc(Cc1c(Cl)ncc(C(=O)N3CCC4(CCOC4)CC3)c1Cl)n2C [Example FB, 2-((2,4-dichloro-5-(2-oxa-8-azaspiro[4.5]decane-8-carbonyl)pyridin-3-yl)methyl)-1,4-dimethyl-1H-indole-6-carbonitrile] | < 100 |
| Cc1cc(C(F)(F)F)cc2c1cc(Cc1c(Cl)ncc(C(=O)N3CCC(CC(=O)O)CC3)c1Cl)n2C [Example B-22] | < 100 |
| Cn1c(Cc2c(Cl)ccc(C(=O)N3CCC(C(=O)O)CC3)c2Cl)cc2c(F)cc(C3CC3)cc21 [Example FN, 1-(2,4-dichloro-3-((6-cyclopropyl-4-fluoro-1-methyl-1H-indol-2-yl)methyl)benzoyl)piperidine-4-carboxylic acid] | < 100 |
| CC(=O)N1CCN(C(=O)c2ccc(Cl)c(Cc3cc4ccc(C(F)(F)F)cc4n3C)c2Cl)CC1 [Example L-3] | 100 to 500 |
| Cc1cc(C(F)(F)F)cc2c1nc(Cc1c(Cl)ccc(C(=O)N3CCN(C(C)C)CC3)c1Cl)n2C [BJ-40] | 100 to 500 |
| Cc1cc(C#N)cc2c1cc(Cc1c(Cl)ccc(C(=O)N3CCC(N(C)C)CC3)c1Cl)n2C [AA-6] | 100 to 500 |
| Cc1cc(C(F)(F)F)cc2c1cc(C(=O)c1c(Cl)ncc(C(=O)N3CCC(CC(=O)O)CC3)c1Cl)n2C [Example FG, 2-(1-(4,6-dichloro-5-(1,4-dimethyl-6-(trifluoromethyl)-1H-indole-2-carbonyl)nicotinoyl)piperidin-4-yl)acetic acid] | < 100 |
| Cc1cc(C(F)(F)F)cc2c1cc(C(=O)c1c(Cl)ccc(C(=O)N3CCC(C4COC4)CC3)c1Cl)n2C [AP-6] | < 100 |
| O=C(O)CC1CCN(C(=O)c2ccc(Cl)c(Cn3ccc4cc(OC(F)(F)F)ccc43)c2Cl)CC1 [EI, 2-(1-(2,4-dichloro-3-((5-(trifluoromethoxy)-1H-indol-1-yl)methyl)benzoyl)piperidin-4-yl)acetic acid] | < 100 |
| Cc1cc(C(F)(F)F)cc2c1nc(Cc1c(Cl)ccc(C(=O)N3CCC(CC(C)(C)O)CC3)c1Cl)n2C [BJ-14] | 100 to 500 |
| Cc1cn(Cc2c(Cl)ccc(C(=O)N3CCC(O)CC3)c2Cl)c2c(C)cc(C#N)cc12 [DK, 1-(2,6-dichloro-3-(4-hydroxypiperidine-1-carbonyl)benzyl)-3,7-dimethyl-1H-indole-5-carbonitrile] | 100 to 500 |
| O=C(O)CC1CCN(C(=O)c2ccc(Cl)c(Cn3ccc4cccc(Cl)c43)c2Cl)CC1 [EI-3] | < 100 |
| Cc1cc(C(F)(F)F)cc2c1cc(Cc1c(Cl)ccc(C(=O)N3CCC(O)C(C(=O)O)C3)c1Cl)n2C (stereo not drawn) [Example B-10] | 1000 to 10000 |
| CCn1c(Cc2c(Cl)ccc(C(=O)N3CCOCC3)c2Cl)cc2c(C)cc(C(F)(F)F)cc21 [Example D-1] | < 100 |
| Cc1cc(C(F)(F)F)cc2c(C)n(C(=O)c3c(Cl)ccc(C(=O)N4CCC(CC(=O)O)CC4)c3Cl)nc12 [EB, 2-(1-(2,4-dichloro-3-(3,7-dimethyl-5-(trifluoromethyl)-2H-indazole-2-carbonyl)benzoyl)piperidin-4-yl)acetic acid] | < 100 |
| Cc1cc(C(F)(F)F)cc2c1cc(Cc1c(Cl)ccc(C(=O)N3CCC(C(=O)O)C(F)(F)C3)c1Cl)n2C (stereo not drawn) [Example AZ, 1-(2,4-dichloro-3-((1,4-dimethyl-6-(trifluoromethyl)-1H-indol-2-yl)methyl)benzoyl)-3,3-difluoropiperidine-4-carboxylic acid] | < 100 |
| Cc1cc(C(F)(F)F)cc2c1cc(Cc1c(Cl)ccc(C(=O)N3CCC(F)(C(=O)O)CC3)c1Cl)n2C [Example B-14] | 100 to 500 |
| Cc1cc(OC(F)F)cc2c1cc(Cc1c(Cl)ccc(C(=O)N3CCC(C(=O)O)CC3)c1Cl)n2C [FF-2] | < 100 |
| Cc1cc(C#N)cc2c1cc(C(=O)c1c(Cl)ccc(C(=O)N3CC(O)C3)c1Cl)n2C [AN-1] | 500 to 1000 |
| Cc1cc(C#N)cc2c1cc(C(=O)c1c(Cl)ccc(C(=O)N3CCOCC3)c1Cl)n2C [Example AD, 2-(2,6-dichloro-3-(morpholine-4-carbonyl)benzoyl)-1,4-dimethyl-1H-indole-6-carbonitrile] | 100 to 500 |
| Cc1cc(C(F)(F)F)cc2c1nc(Cc1c(Cl)ccc(CN3CCC(C(C)O)CC3)c1Cl)n2C (stereo not drawn) [BW-13] | 100 to 500 |
| Cc1cc(C#N)cc2c1cc(Cc1c(Cl)ccc(C(=O)N3CC(O)C3)c1Cl)n2C [AA-20] | 100 to 500 |
| Cc1cc(C#N)cc2c1nc(Cc1c(Cl)ccc(C(=O)N3CCC(C4COC4)CC3)c1Cl)n2C [BN-12] | 100 to 500 |

Same assay, conditions: read-out: IC50

| Compound | IC50 [nM] |
| --- | --- |
| Cc1cc(C(F)(F)F)nc2c1cc(Cc1c(Cl)cnc(C(=O)N3CCOCC3)c1Cl)n2C [Example GH, (3,5-dichloro-4-((1,4-dimethyl-6-(trifluoromethyl)-1H-pyrrolo[2,3-b]pyridin-2-yl)methyl)pyridin-2-yl)(morpholino)methanone] | < 100 |
| Cc1cc(C(F)(F)F)nc2c1cc(C(=O)c1c(Cl)ccc(C(=O)N3CC[C@@H](CC(=O)O)[C@@H](C)C3)c1Cl)n2C.Cc1cc(C(F)(F)F)nc2c1cc(C(=O)c1c(Cl)ccc(C(=O)N3CC[C@@H](CC(=O)O)[C@H](C)C3)c1Cl)n2C.Cc1cc(C(F)(F)F)nc2c1cc(C(=O)c1c(Cl)ccc(C(=O)N3CC[C@H](CC(=O)O)[C@@H](C)C3)c1Cl)n2C.Cc1cc(C(F)(F)F)nc2c1cc(C(=O)c1c(Cl)ccc(C(=O)N3CC[C@H](CC(=O)O)[C@H](C)C3)c1Cl)n2C [Example GA] | < 100 |
